From patent US5939322A, “Human steroid receptor” (Merck & Co., Inc., priority 1996, dated 1999)
“Also recorded” adds a separate entry of the source.

Key:
GR/PPAR [1] = experiment: Ligand dependent transcription assay, GR/PPAR chimeric receptor with MMTV-luciferase reporter in COS cells; assay type: cell-based, African green monkey
Experimental: (§1) Similar hybrid receptors GR/NER, GR/NUC and GR/PPAR, in identical expression plasmid backgrounds were prepared essentially as described for the construction of the GR/mPPAR and GR/NUC chimeric receptors in Schmidt et al., "Identification of a new member of the steroid hormone receptor superfamily that is activated by a peroxisome proliferator and fatty acids," Mol. Endocrinol., 6(10):1634-41, 1992, and in Boie et al., "Enantioselective activation of the peroxisome proliferator-activated receptor", J. Biol. Chem. 269(8):5530-4, 1993.
(§2) Briefly, the amino terminal portion of the mouse glucocorticoid receptor (mGR), that includes the DNA binding domain was fused to the putative ligand binding domains of the nuclear receptor NER, hNUC-I (Schmidt et al., 1992), mPPAR (Issenmann and Green, 1990) to form the respective chimeric receptors GR/NER, GR/NUC and GR/PPAR. The GR/NER chimeric receptor was constructed as described for the GR/NUC and GR/PPAR hybrid receptors (Schmidt et al., 1992; Boie et al). The cDNA sequences coding for amino acids Arg^155 and Glu^156 of the NER receptor were converted to the Xho I restriction site, that was later used for the ligation to the GR cDNA sequences that coded for the DNA binding domain. Thus, converting amino acid residues Arg^155 and Glu^156 of NER receptor to amino acid residues Ser^155 and His^156.
The ligand transcription assay mediated by GR/PPAR in COS cells was performed as described in Example 4. The cells were treated with TOFA and Cerulenin at 0.1, 1, 10 and 100 μM.

GR/NER = experiment: Ligand dependent transcription assay, GR/NER chimeric receptor with MMTV-luciferase reporter in CV1 cells; assay type: cell-based, African green monkey; details: for Fold of Stimulation GR/NER, Control: no dopamine
Experimental: (§3) Transient transfection of COS and CV1 cells was performed as described (Schmidt 1992). Cells were plated (1.5×10^5 in 1 mL) into 12 well dishes in phenol red-free medium supplemented with activated charcoal treated fetal calf serum. The next day 0.12 mL of DNA 10 μg/ml (5 μg receptor DNA and 5 μg reporter plasmid), as a calcium phosphate precipitate, was added to the cells. Ligands were added to the cells 30 minutes after transfection. The next day (18 hours), the cells were washed and fresh ligands added. Twenty-four hours later, cell extracts were prepared and assayed for luciferase enzyme activity using the luciferase assay system (Promega Madison, Wis.). Each transfection was performed in triplicate and the luciferase activity of each sample measured in duplicate using the AutoClinilumat (Berthold Nashua, New Hampshire).

[2] = test system: SCH 23390 Induced Catalepsy; experiment: SCH 23390 (dopamine D1 antagonist) induced catalepsy, bar method; assay type: in vivo; details: rats; carrier pretreatment, 24 h later SCH23390 0.5 mg/kg
Experimental: Rats were pretreated with 0.4 mg/kg TOFA or with carrier (S.C.). Twenty-four hours later, the rats were challenged with 0.5 mg/kg SCH23390, a Dopamine D1 antagonist, and the duration of catalepsy was monitored.
Catalepsy was determined by a modification of the Bar method (Undie and Friedman, 1988). A steel bar, 1.1 cm in diameter and 50 cm long, was suspended at a height of 10 cm above the working surface. Three sides of the bench around the bar were walled off with brown cardboard, and the linings on the bench surface were selected to be of the same color with the cardboard walls. The animal's hind limbs were freely placed on the bench, the tail laid out to the back, and the forelimbs placed over the bar. The length of time a rat stayed up on the bar was noted up to a preset cut-off point of 120 s. The time was counted off upon observing any of the following actions: (1) the animal came off, placing its two forepaws on the bench, (2) the animal climbed onto or over the bar with both hind limbs, (3) the animal initiated locomotion along or around the bar. Subsequently, time readings were translated into scores by awarding a score of 1 for each successfully completed 5 s on the bar. […]
Catalepsy scores were analyzed by computer in accordance with the statistical procedures outlined by Winer, B. J.: Statistical principles in experimental design. […]

GR/PPAR [3] = experiment: Ligand dependent transcription assay, GR/PPAR chimeric receptor with MMTV-luciferase reporter in COS cells; assay type: cell-based, African green monkey; details: Table 1
GR/NUC = experiment: Ligand dependent transcription assay, GR/NUC chimeric receptor with MMTV-luciferase reporter; assay type: cell-based, human; details: Table 1
Experimental: as §1, §2

[4] = test system: MMTV-luciferase reporter gene; experiment: Luciferase expression in cells transfected only with the MMTV-luciferase reporter gene; assay type: cell-based
Experimental: as §3

promoter of SV40 = experiment: Luciferase expression from reporter gene under control of the SV40 promoter; assay type: cell-based
[5] = test system: Haloperidol Induced Catalepsy; experiment: Haloperidol (dopamine D2 antagonist) induced catalepsy, bar method; assay type: in vivo; details: rats; TOFA 0.4 mg/kg S.C. 24 h before Haloperidol 0.1 mg/kg
PC12 cells = experiment: Neurite differentiation of PC12 cells; assay type: cell-based; details: TOFA alone, without NGF (data not shown)
Experimental: To further study the influence of TOFA on the nervous system, we tested the effect of TOFA on the differentiation of PC12 cells. PC12 cells were plated at a density of approximately 100-200/mm^2 on collagen coated plates or dishes in RPMI medium supplemented with 10% horse serum, 5% fetal calf serum, […] streptomycin, 50 U/mL penicillin in a water saturated atmosphere of 95% air and 5% CO2, at 37° C. overnight. […]
At different time points during the treatment, cells were photographed or fixed with 10% formalin. Morphology was examined after four days of treatment with TOFA or vehicle (DMSO). The number of cells bearing neurites and average length of neurites were determined with the aid of the Bioquant imaging system. […] However, as depicted in Table 6 below, NGF alone induced a 15% increase in the number of cells bearing neurites and these outgrowths reached a mean length of 20 μm . Treatment with NGF and TOFA increased the percentage of cells bearing neurites to 78%. Maximal neurite generation is observed at a concentration of 10 μM TOFA.
[…] At least eighty cells from eight wells were analyzed in each group. The results are shown as the mean±SEM. ^a p<0.01, versus vehicle by Dunnetts test.

C/C=C/C/C=C/CCC(=O)[C@H]1O[C@H]1C(N)=O [Cerulenin]
Fold of Stimulation GR/PPAR (GR/PPAR [1]; 0.1 μM, Table 2, 1440 min): 1.03 ± 0.12 fold | Fold of Stimulation GR/PPAR (GR/PPAR [1]; 1.0 μM, Table 2): 1.13 ± 0.05 fold | Fold of Stimulation GR/PPAR (GR/PPAR [1]; 10.0 μM, Table 2, 1440 min): 0.58 ± 0.11 fold

CN1CCc2cc(Cl)c(O)cc2C(c2ccccc2)C1 (centres unmarked) [SCH-23390, 8-chloro-2,3,4,5-tetrahydro-3-methyl-5-phenyl-1H-3-benzazepin-7-ol hemimaleate]
Fold of Stimulation GR/NER, Dopamine (50 μM) (GR/NER; SCH-23390 0.1 μM with dopamine 50 μM): 0.59 ± 0.06 fold | Fold of Stimulation GR/NER, Control (GR/NER; SCH-23390 0.1 μM): 1.32 ± 0.15 fold | Fold of Stimulation GR/NER, Dopamine (50 μM) (GR/NER; SCH-23390 1.0 μM with dopamine 50 μM): 0.55 ± 0.09 fold | Fold of Stimulation GR/NER, Control (GR/NER; SCH-23390 1.0 μM): 1.22 ± 0.11 fold | Fold of Stimulation GR/NER, Dopamine (50 μM) (GR/NER; SCH-23390 10.0 μM with dopamine 50 μM): 0.83 ± 0.12 fold | Fold of Stimulation GR/NER, Control (GR/NER; SCH-23390 10.0 μM): 1.64 ± 0.38 fold | Fold of Stimulation GR/NER, Dopamine (50 μM) (GR/NER; SCH-23390 100 μM with dopamine 50 μM): 2.61 ± 0.86 fold | Fold of Stimulation GR/NER, Control (GR/NER; SCH-23390 100 μM): 2.38 ± 0.19 fold | Catalepsy Duration [2]: 3.1 ± 1.3 s

CCCCCCCC/C=C\CCCCCCCC(=O)O [Oleic Acid, oleic acid]
Fold of Stimulation GR/PPAR (GR/PPAR [3]; 50 μM): 2.87 ± 0.2 fold | Fold of Stimulation GR/PPAR (GR/PPAR [3]; 300 μM): 14.69 ± 0.06 fold | Fold of stimulation GR/NUC (GR/NUC; 150 μM): 3.42 ± 0.28 fold

CCCCCCCCCCCCCCOc1ccc(C(=O)O)o1 [TOFA, 5-(tetradecyloxy)-2-furan carboxylic acid]
Fold of Stimulation GR/PPAR (GR/PPAR [3]; 2 μM): 2.89 ± 0.13 fold | Fold of Stimulation GR/PPAR (GR/PPAR [3]; 10 μM): 4.08 ± 0.10 fold | Fold of Stimulation GR/PPAR (GR/PPAR [3]; 20 μM): 5.75 ± 0.14 fold | stimulation of luciferase expression, MMTV-luciferase reporter gene only [4]: did not stimulate | stimulation of luciferase expression, reporter under control of the promoter of SV40 (promoter of SV40): did not stimulate | Fold of stimulation GR/NUC (GR/NUC; 2 μM): 1.95 ± 0.14 fold | Fold of stimulation GR/NUC (GR/NUC; 10 μM): 2.85 ± 0.20 fold | Fold of stimulation GR/NUC (GR/NUC; 50 μM): 3.19 ± 0.20 fold | Fold of Stimulation GR/PPAR (GR/PPAR [1]; 0.1 μM, Table 2, 1440 min): 1.04 ± 0.14 fold | Fold of Stimulation GR/PPAR (GR/PPAR [1]; 1.0 μM, Table 2): 2.38 ± 0.16 fold | Fold of Stimulation GR/PPAR (GR/PPAR [1]; 10.0 μM, Table 2, 1440 min): 4.43 ± 0.23 fold | Fold of Stimulation GR/PPAR (GR/PPAR [1]; 100 μM, Table 2, 1440 min): 4.10 ± 0.52 fold | effect of TOFA pretreatment on Haloperidol-induced catalepsy [5]: did not significantly affect; also recorded: unaffected | neurite outgrowth (PC12 cells): did not induce neurite outgrowth
